The assay has as its system P388 leukemia ip, CD2F1 mice, survival T/C. The experiment in a line: NCI In Vivo Anticancer Drug Screen. Data for tumor model P388 Leukemia (intraperitoneal) in CD2F1 (CDF1) mice. To be noted: endpoint: median survival time, higher = longer survival. The method in brief:
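Mice carrying the transplanted tumor received test compound or vehicle. Survival was recorded in each group, and the value is the treated-group measurement divided by that of the vehicle-treated control group.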

Where [1] appears, read: dose: 12.5 mg/kg/injection, schedule: Q01DX009 (ip), vehicle: saline with Tween-80.
Where [2] appears, read: dose: 25.0 mg/kg/injection, schedule: Q01DX009 (ip), vehicle: saline with Tween-80.
Where [3] appears, read: dose: 50.0 mg/kg/injection, schedule: Q01DX009 (ip), vehicle: Klucel (hydroxypropylcellulose) (HPC).
[4] abbreviates: dose: 50.0 mg/kg/injection, schedule: Q01DX009 (ip), vehicle: saline with Tween-80.
Setting [5] is: dose: 100.0 mg/kg/injection, schedule: Q01DX009 (ip), vehicle: Klucel (hydroxypropylcellulose) (HPC).
The mark [6] stands for this setting: dose: 200.0 mg/kg/injection, schedule: Q04DX002 (ip), vehicle: saline with Tween-80.
Setting [7] is: dose: 100.0 mg/kg/injection, schedule: Q01DX001 (ip), vehicle: saline with Tween-80.
The mark [8] stands for this setting: dose: 200.0 mg/kg/injection, schedule: Q01DX001 (ip), vehicle: saline with Tween-80.
[9] abbreviates: dose: 50.0 mg/kg/injection, schedule: Q01DX005 (ip), vehicle: saline with Tween-80.
Setting [10] is: dose: 100.0 mg/kg/injection, schedule: Q01DX005 (ip), vehicle: saline with Tween-80.
Where [11] appears, read: dose: 200.0 mg/kg/injection, schedule: Q01DX005 (ip), vehicle: saline with Tween-80.
Setting [12] is: dose: 100.0 mg/kg/injection, schedule: Q04DX003 (ip), vehicle: saline.

Where “and” joins values, the source holds several entries; their conditions need not be identical. Equal values may be shown once. Inconclusive results and toxic doses are left out.

For `CC(C)NCC(O)COc1ccccc1C1CCCCC1` (stereo unspecified), the T/C by setting is: (dose: 6.25 mg/kg/injection, schedule: Q01DX009 (ip), vehicle: Klucel (hydroxypropylcellulose) (HPC)) 103 % of control; (dose: 6.25 mg/kg/injection, schedule: Q01DX009 (ip), vehicle: saline with Tween-80) 102 % of control; (dose: 12.5 mg/kg/injection, schedule: Q01DX009 (ip), vehicle: Klucel (hydroxypropylcellulose) (HPC)) 106 % of control; under setting [1], 123 % of control and 94 % of control; under setting [2], 102 % of control and 113 % of control; under setting [3], 104 % of control. In addition, the T/C is, setting by setting: under setting [4], 99 % of control and 118 % of control and 96 % of control; under setting [5], 98 % of control.

In the case of `Cc1cc(NCCCCCCNc2cc(C)nc3ccc(N)cc23)c2cc(N)ccc2n1`, the T/C is 177 % of control (dose: 75.0 mg/kg/injection, schedule: Q04DX003 (ip), vehicle: alcohol); 186 % of control (dose: 150.0 mg/kg/injection, schedule: Q04DX003 (ip), vehicle: alcohol); 190 % of control (dose: 300.0 mg/kg/injection, schedule: Q04DX003 (ip), vehicle: alcohol).

With `O=C(OC1CC2CCC(C1)S2)c1ccco1` (stereo unspecified), the T/C is, setting by setting: (dose: 50.0 mg/kg/injection, schedule: Q04DX002 (ip), vehicle: saline with Tween-80) 109 % of control; (dose: 100.0 mg/kg/injection, schedule: Q04DX002 (ip), vehicle: saline with Tween-80) 109 % of control; under setting [6], 110 % of control.

Take `C=CC12CCCCC1CCC(=O)C2` (stereo unspecified): under setting [3], the T/C is 111 % of control.

`CC(C)C(=O)OC1(C(C)c2ccccc2)C(=O)NC(=O)NC1=O` (stereo unspecified): the T/C reads like this: (dose: 7.5 mg/kg/injection, schedule: Q01DX005 (ip), vehicle: Klucel (hydroxypropylcellulose) (HPC)) 98 % of control; (dose: 15.0 mg/kg/injection, schedule: Q01DX005 (ip), vehicle: Klucel (hydroxypropylcellulose) (HPC)) 102 % of control.

With `Nc1ncc([N+](=O)[O-])c(Cl)n1`, the T/C is, setting by setting: under setting [1], 105 % of control; under setting [2], 105 % of control; under setting [4], 105 % of control.

In the case of `CC(C)=Cn1ccccc1=O`, the T/C by setting is: (dose: 25.0 mg/kg/injection, schedule: Q01DX001 (ip), vehicle: saline) 104 % of control and 108 % of control; (dose: 50.0 mg/kg/injection, schedule: Q01DX001 (ip), vehicle: saline) 99 % of control and 98 % of control; (dose: 100.0 mg/kg/injection, schedule: Q01DX001 (ip), vehicle: saline) 120 % of control and 95 % of control and 98 % of control; (dose: 200.0 mg/kg/injection, schedule: Q01DX001 (ip), vehicle: saline) 94 % of control; (dose: 400.0 mg/kg/injection, schedule: Q01DX001 (ip), vehicle: saline) 108 % of control.

In the case of `CCN(CC)CCNc1ncnc(N)c1C(=C(C)C)c1ccc(Cl)cc1`, under setting [4], the T/C was 87 % of control.

As for `CC1=C(C)C(C)(C)OC1=O`, the T/C was 100 % of control under setting [7]; 100 % of control under setting [8]; 104 % of control (dose: 400.0 mg/kg/injection, schedule: Q01DX001 (ip), vehicle: saline with Tween-80).

Take `CCC(c1ccc(OC)cc1)C(NCC(=O)NNC(=S)Nc1cccc(C)c1)c1ccc(OC)cc1` (stereo unspecified): the T/C by setting is: under setting [7], 90 % of control; under setting [8], 96 % of control.

Take `N/C(=N\Cl)C(Cl)(Cl)Cl`: the T/C by setting is: (dose: 16.5 mg/kg/injection, schedule: Q01DX009 (ip), vehicle: saline) 113 % of control; (dose: 25.0 mg/kg/injection, schedule: Q01DX009 (ip), vehicle: saline) 106 % of control; (dose: 37.5 mg/kg/injection, schedule: Q01DX009 (ip), vehicle: saline) 111 % of control.

On to `ClC(Cl)C1OCCCO1`, for which the T/C by setting is: (dose: 60.0 mg/kg/injection, schedule: Q01DX005 (ip), vehicle: saline) 100 % of control; (dose: 120.0 mg/kg/injection, schedule: Q01DX005 (ip), vehicle: saline) 99 % of control; (dose: 240.0 mg/kg/injection, schedule: Q01DX005 (ip), vehicle: saline) 96 % of control.

On to `CC(NC(=O)c1cccc2c1Oc1ccccc1S2)C(=O)O` (stereo unspecified), for which the T/C is, setting by setting: (dose: 50.0 mg/kg/injection, schedule: Q04DX002 (ip), vehicle: saline) 104 % of control; (dose: 100.0 mg/kg/injection, schedule: Q04DX002 (ip), vehicle: saline) 98 % of control; under setting [6], 93 % of control; (dose: 200.0 mg/kg/injection, schedule: Q04DX002 (ip), vehicle: saline) 99 % of control.

Take `COc1ccc(C(=O)Nc2ccccc2-c2ccccc2)cc1OC`: the T/C is 105 % of control under setting [9], 97 % of control under setting [10] and 103 % of control under setting [11].

As for `O=NN(CCBr)C(=O)Nc1ccccc1`, the T/C reads like this: (dose: 6.0 mg/kg/injection, schedule: Q01DX009 (ip), vehicle: saline with Tween-80) 154 % of control; (dose: 12.0 mg/kg/injection, schedule: Q01DX009 (ip), vehicle: saline with Tween-80) 177 % of control; under setting [2], 177 % of control; (dose: 37.5 mg/kg/injection, schedule: Q01DX009 (ip), vehicle: saline with Tween-80) 175 % of control; (dose: 66.0 mg/kg/injection, schedule: Q04DX003 (ip), vehicle: saline) 118 % of control; under setting [12], 109 % of control. The T/C (dose: 150.0 mg/kg/injection, schedule: Q04DX003 (ip), vehicle: saline) is 100 % of control.

As for `CC1=CC(=O)OC12CCCC(C)(C)C2` (stereo unspecified), the T/C by setting is: under setting [9], 106 % of control; under setting [10], 104 % of control; under setting [11], 106 % of control.

`O=C1OC(=O)c2ccc3c4c(ccc1c24)C(=O)OC3=O`: the T/C is 104 % of control under setting [9] and 105 % of control under setting [10].

`COc1ccc(-n2c(C)nc3c(cnn3C)c2=O)cc1`: the T/C was 101 % of control and 96 % of control (dose: 25.0 mg/kg/injection, schedule: Q01DX005 (ip), vehicle: Klucel (hydroxypropylcellulose) (HPC)); 100 % of control and 101 % of control and 97 % of control (dose: 50.0 mg/kg/injection, schedule: Q01DX005 (ip), vehicle: Klucel (hydroxypropylcellulose) (HPC)); 108 % of control and 115 % of control and 95 % of control (dose: 100.0 mg/kg/injection, schedule: Q01DX005 (ip), vehicle: Klucel (hydroxypropylcellulose) (HPC)); 99 % of control and 120 % of control and 97 % of control (dose: 200.0 mg/kg/injection, schedule: Q01DX005 (ip), vehicle: Klucel (hydroxypropylcellulose) (HPC)).

Regarding `COSc1ccc(C)cc1`, the T/C under setting [12] was 108 % of control and the T/C (dose: 200.0 mg/kg/injection, schedule: Q04DX003 (ip), vehicle: saline) is 100 % of control.

On to `CCOC(=O)c1c(C(=O)Nc2ccccc2)c(-c2ccccc2)n(NC(=O)c2cccc(Cl)c2)c1C`, for which the T/C was 98 % of control (dose: 60.0 mg/kg/injection, schedule: Q01DX005 (ip), vehicle: Klucel (hydroxypropylcellulose) (HPC)) and 94 % of control (dose: 120.0 mg/kg/injection, schedule: Q01DX005 (ip), vehicle: Klucel (hydroxypropylcellulose) (HPC)).

For `N#CC1C(=O)NC(=O)C(C#N)C1c1ccc(Cl)cc1Cl` (stereo unspecified), the T/C runs as follows: under setting [3], 96 % of control; under setting [5], 105 % of control; (dose: 200.0 mg/kg/injection, schedule: Q01DX009 (ip), vehicle: Klucel (hydroxypropylcellulose) (HPC)) 107 % of control.

For `Cc1cccc(N(CCO)CCC#N)c1`, the T/C was 102 % of control (dose: 50.0 mg/kg/injection, schedule: Q01DX005 (ip), vehicle: distilled water + Tween-80 + alcohol); 101 % of control (dose: 100.0 mg/kg/injection, schedule: Q01DX005 (ip), vehicle: distilled water + Tween-80 + alcohol); 94 % of control (dose: 200.0 mg/kg/injection, schedule: Q01DX005 (ip), vehicle: distilled water + Tween-80 + alcohol).

As to `CC(C)OS(=O)(=O)c1ccc([N+](=O)[O-])cc1`, the T/C runs as follows: (dose: 50.0 mg/kg/injection, schedule: Q01DX009 (ip), vehicle: saline) 94 % of control; (dose: 100.0 mg/kg/injection, schedule: Q01DX009 (ip), vehicle: saline) 100 % of control; (dose: 200.0 mg/kg/injection, schedule: Q01DX009 (ip), vehicle: saline) 105 % of control.

Turning to `O=C(O)c1ccc(C(=O)c2ccc([N+](=O)[O-])cc2)cc1`, the T/C was 103 % of control (dose: 60.0 mg/kg/injection, schedule: Q01DX005 (ip), vehicle: saline with Tween-80); 104 % of control (dose: 120.0 mg/kg/injection, schedule: Q01DX005 (ip), vehicle: saline with Tween-80); 103 % of control (dose: 240.0 mg/kg/injection, schedule: Q01DX005 (ip), vehicle: saline with Tween-80).

For the origin of these results see PubChem BioAssay AID330 (DTP/NCI, 2004).
